The values that follow come from article PMC5650741 (ACS infectious diseases, 2017).

For the test, the target named is T1, E. coli DXP synthase (DXPS) (Escherichia coli, UniProt P77488).
T1 sequence (P77488 2-620): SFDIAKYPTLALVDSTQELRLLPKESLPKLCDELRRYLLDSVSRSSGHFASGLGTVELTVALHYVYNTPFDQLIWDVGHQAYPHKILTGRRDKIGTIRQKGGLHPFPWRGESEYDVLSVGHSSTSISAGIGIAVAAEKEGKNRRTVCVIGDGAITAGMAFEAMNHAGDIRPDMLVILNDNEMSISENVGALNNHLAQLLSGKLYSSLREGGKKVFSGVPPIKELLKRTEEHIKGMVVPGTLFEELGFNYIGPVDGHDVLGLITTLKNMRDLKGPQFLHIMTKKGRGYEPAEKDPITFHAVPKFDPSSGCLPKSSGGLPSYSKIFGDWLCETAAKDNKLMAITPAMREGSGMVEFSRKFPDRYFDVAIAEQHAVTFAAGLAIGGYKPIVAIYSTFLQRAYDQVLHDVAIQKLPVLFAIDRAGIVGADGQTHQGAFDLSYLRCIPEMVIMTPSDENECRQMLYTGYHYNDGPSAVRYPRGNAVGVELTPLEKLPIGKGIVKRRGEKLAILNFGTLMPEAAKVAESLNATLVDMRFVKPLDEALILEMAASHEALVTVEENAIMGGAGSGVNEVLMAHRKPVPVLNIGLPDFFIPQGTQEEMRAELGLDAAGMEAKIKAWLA
Nature of the test: IspC-coupled NADPH consumption at […] nm. Format: biochemical.

In the case of `CCCCCCCCOP(=O)(O)C(C)=O` [compound 7, octylacetylphosphonate], affinity was put at a Ki of 1.4 ± 0.2 µM.

As to `CCCOP(=O)(O)C(C)=O` [compound 3, alkylAP 3], the Ki (in general, the equilibrium dissociation constant of an inhibitor or competing ligand from its target) came out at 7.1 ± 0.8 µM.
